pIC50: −log10 of the molar value.
target: T1, human recombinant LPA1 expressed in CHO cells (Homo sapiens, UniProt Q92633); test: FLIPR calcium mobilization assay, LPA1 antagonism in CHO-hLPA1 cells; assay type: cell-based; details: inhibition of LPA EC80 Ca2+ response, 30 min pre-incubation, expressed as range of activity
T1 construct: expressed in transfected cells; host or cells: CHO cells (CHO-hLPA1 cell line)
Method: The effectiveness of compounds of the present invention as LPA1 antagonist can be determined at the human recombinant LPA1 expressed in CHO cells, using a FLIPR assay in 384 well format.
CHO-hLPA1 cell lines are cultured in a humidified incubator at 5% C02 in DMEM/F-12 (1:1) MIXTURE with 2 mM Glutamax, supplemented with 10% of Foetal Bovine Serum, 1 mM Sodium Pyruvate, 11 mM Hepes and 1× Penicillin/Streptomycin. […] Serial dilutions (1:3 or 1:4, 11 points CRC) of compounds are performed in 100% DMSO at 200× the final concentration. […] The final concentration of DMSO in the assay will be 0.5% in each well. Medium is removed by aspiration and cells are then incubated with 30 μl of a loading solution containing 5 μM of the cytoplasmic Ca2+ indicator Cal-520 AM in Assay Buffer containing 2.5 mM probenecid for 30 min at 37° C. incubator (cell loading). The loaded cell plates are transferred into the FLIPR instrument and calcium responses are monitored during the on-line addition protocols. For testing of compounds, after the cell loading, 10 μl/well of 4× antagonists' solution was added onto the cells. After 30 min pre-incubation (at 37° C.), 10 μl/well of 5× concentrated LPA EC80 was added and Ca2+ mobilization responses was followed during the on-line addition protocol. Intracellular peak fluorescence values subtracted by baseline fluorescence are exported and analysed to determine IC50 values, respectively. The calcium response is expressed as percentage of the maximal inhibition of the EC80 agonist response.
The raw data (peak height expressed as relative fluorescence units) are normalized and transformed into “percent of inhibition”. Curve fitting and pIC50 (−LogIC50) estimations are carried out using a four-parameter logistic model using XLfit Software.

T1 sequence (Q92633 whole entry): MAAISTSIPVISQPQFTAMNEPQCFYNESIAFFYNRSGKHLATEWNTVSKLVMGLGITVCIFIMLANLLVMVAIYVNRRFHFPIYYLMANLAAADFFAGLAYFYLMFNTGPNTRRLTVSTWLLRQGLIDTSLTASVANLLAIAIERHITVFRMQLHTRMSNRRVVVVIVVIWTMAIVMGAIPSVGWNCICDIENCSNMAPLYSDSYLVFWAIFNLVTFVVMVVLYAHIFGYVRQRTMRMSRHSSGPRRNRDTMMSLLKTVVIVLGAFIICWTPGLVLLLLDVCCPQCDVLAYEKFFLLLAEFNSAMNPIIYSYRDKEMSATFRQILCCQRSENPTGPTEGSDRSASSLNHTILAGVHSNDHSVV

| pIC50 | Structure (SMILES) |
| --- | --- |
| > 7.30 | Cc1nc(-c2onc(C)c2NC(=O)O[C@H](C)c2ccccc2Cl)ccc1OC[C@H]1CCCC[C@@H]1C(=O)O [Compound 80, (1S,2S)-2-(((6-(4-((((R)-1-(2-chlorophenyl)ethoxy)carbonyl)amino)-3-methylisoxazol-5-yl)-2-methylpyridin-3-yl)oxy)methyl)cyclohexane-1-carboxylic acid] |
| > 7.30 | CCCN(C)C(=O)OCc1c(C)noc1-c1ccc(OC[C@H]2CCCC[C@@H]2C(=O)O)c(C)n1 [Compound 75, (1S,2S)-2-(((2-methyl-6-(3-methyl-4-(((methyl(propyl)carbamoyl)oxy)methyl)isoxazol-5-y1)pyridin-3-yl)oxy)methyl)cyclohexane-1-carboxylic acid] |
| 6.60 to 7.30 | CCCN(C)C(=O)OCc1c(-c2ccc(OC[C@H]3CCCC[C@@H]3C(=O)O)c(C)n2)nnn1C [Compound 76, (1S,2S)-2-(((2-methyl-6-(1-methyl-5-(((methyl(propyl)carbamoyl)oxy)methyl)-1H-1,2,3-triazol-4-yl)pyridin-3-yl)oxy)methyl)cyclohexane-1-carboxylic acid] |
| > 7.30 | Cc1noc(-c2ccc(OC[C@H]3CCCC[C@@H]3C(=O)O)cn2)c1NC(=O)O[C@H](C)c1ccccc1Cl [Compound 78, (1S,2S)-2-(((6-(4-((((R)-1-(2-chlorophenyl)ethoxy)carbonyl)amino)-3-methylisoxazol-5-yl)pyridin-3-yl)oxy)methyl)cyclohexane-1-carboxylic acid] |
| > 7.30 | CCC[C@@H](C)OC(=O)Nc1c(C)noc1-c1ccc(OC[C@H]2CCCC[C@@H]2C(=O)O)c(C)n1 [Compound 70] |
| > 7.30 | Cc1nc(-c2onc(C)c2COC(=O)N(C)C2CCCC2)ccc1OC[C@H]1CCCC[C@@H]1C(=O)O [Compound 74, (1S,2S)-2-(((6-(4-(((cyclopentyl(methyl)carbamoyl)oxy)methyl)-3-methylisoxazol-5-yl)-2-methylpyridin-3-yl)oxy)methyl)cyclohexane-1-carboxylic acid] |
| > 7.30 | Cc1noc(-c2ccc(OCC3CCCCC3C(=O)O)cn2)c1NC(=O)O[C@H](C)c1ccccc1Cl (stereo partly drawn) [Compound 79, 2-(((6-(4-((((R)-1-(2-chlorophenyl)ethoxy)carbonyl)amino)-3-methylisoxazol-5-yl)pyridin-3-yl)oxy)methyl)cyclohexane-1-carboxylic acid] |
| > 7.30 | Cc1nc(-c2nnn(C)c2CNc2nccc(-c3cnccn3)n2)ccc1OC[C@H]1CCCC[C@@H]1C(=O)O [Compound 65, (1S,2S)-2-(((2-methyl-6-(1-methyl-5-(((4-(pyrazin-2-yl)pyrimidin-2-yl)amino)methyl)-1H-1,2,3-triazol-4-yl)pyridin-3-yl)oxy)methyl)cyclohexane-1-carboxylic acid] |
| 6.60 to 7.30 | Cc1nc(-c2nnn(C)c2CNc2cncc(OC(C)C)n2)ccc1OC[C@H]1CCCC[C@@H]1C(=O)O [Compound 73] |

Continued, compound first:

| Structure (SMILES) | pIC50 |
| --- | --- |
| Cc1noc(-c2ccc(OC[C@H]3CCCC[C@@H]3C(=O)O)cn2)c1Nc1cncc(OC(C)C)n1 [Compound 48, (1S,2S)-2-(((6-(4-((6-isopropoxypyrazin-2-yl)amino)-3-methylisoxazol-5-yl)pyridin-3-yl)oxy)methyl)cyclohexane-1-carboxylic acid] | > 7.30 |
| Cc1nc(-c2cnn(C)c2CNc2nccc(-c3ccccc3)n2)ccc1NC(=O)[C@H]1CCCC[C@@H]1C(=O)O [Compound 19, (1S,2S)-2-((2-methyl-6-(1-methyl-5-(((4-phenylpyrimidin-2-yl)amino)methyl)-1H-pyrazol-4-yl)pyridin-3-yl)carbamoyl)cyclohexane-1-carboxylic acid] | > 7.30 |
| Cc1nc(-c2onc(C)c2Nc2cncc(C(F)(F)F)n2)ccc1NC(=O)[C@H]1CCCC[C@@H]1C(=O)O [Compound 4, (1S,2S)-2-((2-methyl-6-(3-methyl-4-((6-(trifluoromethyl)pyrazin-2-yl)amino)isoxazol-5-yl)pyridin-3-yl)carbamoyl)cyclohexane-1-carboxylic acid] | 6.60 to 7.30 |
| Cc1nc(-c2cnn(C)c2COC(=O)N(C)CCC(C)C)ccc1NC(=O)[C@H]1CCCC[C@@H]1C(=O)O [Compound 21, (1S,2S)-2-((6-(5-(((isopentyl(methyl)carbamoyl)oxy)methyl)-1-methyl-1H-pyrazol-4-yl)-2-methylpyridin-3-yl)carbamoyl)cyclohexane-1-carboxylic acid] | 6.22 to 6.60 |
| Cc1nc(-c2onc(C)c2Nc2cncc(C3CCCC3)n2)ccc1OC[C@H]1CCCC[C@@H]1C(=O)O [Compound 46, (1S,2S)-2-(((6-(4-((6-cyclopentylpyrazin-2-yl)amino)-3-methylisoxazol-5-yl)-2-methylpyridin-3-yl)oxy)methyl)cyclohexane-1-carboxylic acid] | > 7.30 |
| Cc1nc(-c2nnn(C)c2CNC(=O)OCc2cccnc2Cl)ccc1OC[C@H]1CCCC[C@@H]1C(=O)O [Compound 64, (1S,2S)-2-(((6-(5-(((((2-chloropyridin-3-yl)methoxy)carbonyl)amino)methyl)-1-methyl-1H-1,2,3-triazol-4-yl)-2-methylpyridin-3-yl)oxy)methyl)cyclohexane-1-carboxylic acid] | 6.60 to 7.30 |
| COc1cncc(Nc2c(C)noc2-c2ccc(OC[C@H]3CCCC[C@@H]3C(=O)O)c(C)n2)n1 [Compound 53, (1S,2S)-2-(((6-(4-((6-methoxypyrazin-2-yl)amino)-3-methylisoxazol-5-yl)-2-methylpyridin-3-yl)oxy)methyl)cyclohexane-1-carboxylic acid] | 6.60 to 7.30 |
| Cc1nc(-c2onc(C)c2CNC(=O)O[C@H](C)c2ccccc2)ccc1NC(=O)[C@H]1CCCC[C@@H]1C(=O)O [Compound 35, (1S,2S)-2-((2-methyl-6-(3-methyl-4-(((((R)-1-phenylethoxy)carbonyl)amino)methyl)isoxazol-5-yl)pyridin-3-yl)carbamoyl)cyclohexane-1-carboxylic acid] | 6.22 to 6.60 |
| Cc1nc(-c2onc(C)c2Nc2cncc(CC(C)C)n2)ccc1NC(=O)[C@H]1CCCC[C@@H]1C(=O)O [Compound 12, (1S,2S)-2-((6-(4-((6-isobutylpyrazin-2-yl)amino)-3-methylisoxazol-5-yl)-2-methylpyridin-3-yl)carbamoyl)cyclohexane-1-carboxylic acid] | 6.60 to 7.30 |
| Cc1nc(-c2onc(C)c2Nc2cncc(OC3CC(F)(F)C3)n2)ccc1NC(=O)[C@H]1CCCC[C@@H]1C(=O)O [Compound 3, (1S,2S)-2-((6-(4-((6-(3,3-difluorocyclobutoxy)pyrazin-2-yl)amino)-3-methylisoxazol-5-yl)-2-methylpyridin-3-yl)carbamoyl)cyclohexane-1-carboxylic acid] | 6.60 to 7.30 |
| CCCc1cncc(Nc2c(C)noc2-c2ccc(OC[C@H]3CCCC[C@@H]3C(=O)O)c(C)n2)n1 [Compound 54, (1S,2S)-2-(((2-methyl-6-(3-methyl-4-((6-propylpyrazin-2-yl)amino)isoxazol-5-yl)pyridin-3-yl)oxy)methyl)cyclohexane-1-carboxylic acid] | > 7.30 |
| Cc1nc(-c2nnn(C)c2CNC(=O)O[C@H](C)c2cccnc2Cl)ccc1OC[C@H]1CCCC[C@@H]1C(=O)O [Compound 63, (1S,2S)-2-(((6-(5-(((((R)-1-(2-chloropyridin-3-yl)ethoxy)carbonyl)amino)methyl)-1-methyl-1H-1,2,3-triazol-4-yl)-2-methylpyridin-3-yl)oxy)methyl)cyclohexane-1-carboxylic acid] | > 7.30 |
| CCOc1ccnc(NCc2c(C)noc2-c2ccc(NC(=O)[C@H]3CCCC[C@@H]3C(=O)O)c(C)n2)n1 [Compound 36, (1S,2S)-2-((6-(4-(((4-ethoxypyrimidin-2-yl)amino)methyl)-3-methylisoxazol-5-yl)-2-methylpyridin-3-yl)carbamoyl)cyclohexane-1-carboxylic acid] | 6.60 to 7.30 |
| Cc1nc(-c2cnn(C)c2CNc2nccc(C3CCCCC3)n2)ccc1NC(=O)[C@H]1CCCC[C@@H]1C(=O)O [Compound 18] | > 7.30 |
| Cc1nc(-c2onc(C)c2Nc2cncc(OC(C)C)n2)ccc1OC[C@H]1CCCC[C@@H]1C(=O)O [Compound 52, (1S,2S)-2-(((6-(4-((6-isopropoxypyrazin-2-yl)amino)-3-methylisoxazol-5-yl)-2-methylpyridin-3-yl)oxy)methyl)cyclohexane-1-carboxylic acid] | > 7.30 |
| Cc1nc(-c2onc(C)c2CNc2nccc(-c3cccs3)n2)ccc1NC(=O)[C@H]1CCCC[C@@H]1C(=O)O [Compound 37, (1S,2S)-2-((2-methyl-6-(3-methyl-4-(((4-(thiophen-2-yl)pyrimidin-2-yl)amino)methyl)isoxazol-5-yl)pyridin-3-yl)carbamoyl)cyclohexane-1-carboxylic acid] | > 7.30 |
| Cc1nc(-c2onc(C)c2Nc2cncc(NC3CCCC3)n2)ccc1NC(=O)[C@H]1CCCC[C@@H]1C(=O)O [Compound 15, (1S,2S)-2-((6-(4-((6-(cyclopentylamino)pyrazin-2-yl)amino)-3-methylisoxazol-5-yl)-2-methylpyridin-3-yl)carbamoyl)cyclohexane-1-carboxylic acid] | 6.60 to 7.30 |
